#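 1) Cells in 96-well plates. 2) Compound, 48 h, 5 concentrations. 3) Linear interpolation between surrounding doses. 4) Unreached endpoint = highest concentration. GI50 marks 50% less growth. TGI marks complete inhibition of growth.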
# Columns and labels:
# Assay in all cases: growth of human tumour cells (NCI), 48 h
# SK-MEL-5 melanoma = test system: SK-MEL-5 melanoma
# HL-60(TB) leukemia = test system: HL-60(TB) leukemia
# HT29 colon = test system: HT29 colon
# HCT-15 colon = test system: HCT-15 colon
# SK-OV-3 ovarian = test system: SK-OV-3 ovarian
# NCI-H226 lung = test system: NCI-H226 lung
# MALME-3M melanoma = test system: MALME-3M melanoma
# U251 CNS = test system: U251 CNS
# SF-539 CNS = test system: SF-539 CNS
# MCF7 breast = test system: MCF7 breast
SMILES,TGI (SK-MEL-5 melanoma),TGI (HL-60(TB) leukemia),TGI (HT29 colon),TGI (HCT-15 colon),TGI (SK-OV-3 ovarian),TGI (NCI-H226 lung),TGI (MALME-3M melanoma),TGI (U251 CNS),TGI (SF-539 CNS),GI50 (SK-MEL-5 melanoma),GI50 (SF-539 CNS),GI50 (HT29 colon),GI50 (MCF7 breast),TGI (MCF7 breast),GI50 (HCT-15 colon),GI50 (SK-OV-3 ovarian),GI50 (NCI-H226 lung),GI50 (U251 CNS),GI50 (MALME-3M melanoma),GI50 (HL-60(TB) leukemia)
CCOc1cc(C=O)c2c(ccc3ccc(OC)c(OC)c32)c1OC,> 100 µM,> 100 µM,> 100 µM,> 100 µM,> 100 µM,> 100 µM,> 100 µM,> 100 µM,,,,,,,,,,,,
O=c1cc2n(c(=O)[nH]1)C1OC(C(O)C1O)[C@H]2CCO (stereo not given in full),> 100 µM,> 100 µM,> 100 µM,,> 100 µM,> 100 µM,> 100 µM,> 100 µM,> 100 µM,,,,,,,,,,,
COc1ccc2nc3cc(Cl)ccc3c(NCCC(=O)OCC(O)C(O)C(O[C@H](C)C(=O)NC(C)C(=O)NC(CCC(N)=O)C(=O)OCc3ccccc3)C(C=O)NC(C)=O)c2c1 (stereo not given in full),30.2 µM,56.3 µM,41.3 µM,52.4 µM,33 µM,37.8 µM,> 100 µM,35.7 µM,37.1 µM,,,,,,,,,,,
C=CCCC(O)c1ccc(C(O)CCCCCCCCCCCC)o1 (stereo not given),35.7 µM,,> 100 µM,31.6 µM,> 100 µM,43.9 µM,,31.9 µM,37.5 µM,20.1 µM,19.7 µM,32.3 µM,82.2 µM,> 100 µM,16.2 µM,> 100 µM,21.7 µM,17.5 µM,,
COc1ccc(-c2cc(-c3ccc(O)cc3)nc3nc(=S)[nH]c(N)c23)cc1,31 µM,,> 100 µM,58 µM,,36.9 µM,38.7 µM,61.1 µM,17.1 µM,16.1 µM,2.46 µM,30.1 µM,12 µM,35.6 µM,19.6 µM,,15.7 µM,15.3 µM,17.6 µM,
C[C@]12CCC3[C@@H](C[C@H]4OC(=O)[C@@]35CCC(=O)C=C45)C1CCC2=O (stereo not given in full),> 100 µM,> 100 µM,> 100 µM,> 100 µM,> 100 µM,> 100 µM,> 100 µM,> 100 µM,> 100 µM,,,,,,,,,,,
[N-]=[N+]=Nc1ccccc1-[n+]1noc([O-])c1Br,> 100 µM,> 100 µM,> 100 µM,> 100 µM,> 100 µM,> 100 µM,> 100 µM,> 100 µM,> 100 µM,,,,,,,,,,,
O=C1CSC(=S)N1c1ccc(F)cc1F,54.6 µM,,> 100 µM,> 100 µM,> 100 µM,> 100 µM,> 100 µM,> 100 µM,> 100 µM,,,,,51.5 µM,,,,,,
Cc1cc2cc(Cl)ccc2nc1C(=O)c1ccccc1,> 100 µM,,,> 100 µM,,> 100 µM,> 100 µM,> 100 µM,> 100 µM,,,,,,,,,,,
Nc1nc(=O)n(C2CC(O)C(O)C(CO)O2)cc1F (stereo not given),,> 100 µM,> 100 µM,> 100 µM,,> 100 µM,> 100 µM,> 100 µM,> 100 µM,,,,,,,,,,,
COC(=O)CSc1ccccc1,> 100 µM,> 100 µM,> 100 µM,> 100 µM,> 100 µM,,59.8 µM,> 100 µM,> 100 µM,,,,,,,,,,,
COC(=O)CCC(=O)CC(=O)C(=O)Nc1ccc(F)cc1,> 100 µM,,> 100 µM,> 100 µM,> 100 µM,> 100 µM,> 100 µM,> 100 µM,> 100 µM,,,,,,,,,,,
N#Cc1ccc(/C=N\N2C(=O)c3ccccc3C2=O)cc1,> 100 µM,> 100 µM,> 100 µM,> 100 µM,,> 100 µM,> 100 µM,,> 100 µM,,,,,,,,,,,
CNc1nnnn1C1OC(CO)C(O)C1O (stereo not given),> 100 µM,,> 100 µM,> 100 µM,> 100 µM,> 100 µM,> 100 µM,> 100 µM,> 100 µM,,,,,,,,,,,
CC(C)(C)C(=O)OCOP(=O)(OCOC(=O)C(C)(C)C)C1CCCN(OC(=O)c2ccccc2)C1=O (stereo not given),3.28 µM,,6.28 µM,39.9 µM,27.1 µM,19.5 µM,5.44 µM,10.5 µM,18.9 µM,0.983 µM,3.72 µM,0.529 µM,0.528 µM,10.1 µM,1.28 µM,1.99 µM,1.34 µM,0.919 µM,0.457 µM,
CCCCCCCCCCCCOC1C(CNC(=O)C2OC3OC(C)(C)OC3C2NC(=O)CN2CCN(c3ccccn3)CC2)OC2OC(C)(C)OC21 (stereo not given),3.09 µM,,3.34 µM,3.31 µM,9.86 µM,3.72 µM,3.86 µM,3.46 µM,3.44 µM,1.7 µM,1.93 µM,1.75 µM,1.94 µM,4.58 µM,1.76 µM,5.18 µM,1.82 µM,1.86 µM,1.88 µM,
COc1ccc(C(=O)/C(=N/Nc2ccccc2)c2ccc(OC)cc2)cc1,> 100 µM,,> 100 µM,> 100 µM,> 100 µM,> 100 µM,> 100 µM,> 100 µM,> 100 µM,,,,,,,,,,,
COc1ccc(CN2C(=O)C(Cc3cc(OC)c(OC)c(C)c3OC)N(C(=O)OC(C)C)C(=O)/C2=C/c2cc(OC)c(OC)c(C)c2OC)cc1 (stereo not given),> 100 µM,> 100 µM,> 100 µM,,> 100 µM,> 100 µM,> 100 µM,> 100 µM,> 100 µM,,,,,,,,,,,
O=C(O)CN(CC(=O)O)Cc1cc2c(cc1O)Oc1cc(O)c(CN(CC(=O)O)CC(=O)O)cc1C21OC(=O)c2ccccc21,> 100 µM,> 100 µM,> 100 µM,> 100 µM,> 100 µM,> 100 µM,,> 100 µM,> 100 µM,,,,,> 100 µM,,,,,,
Cn1c(=O)nc2n(-c3ccc(F)cc3)c3ccccc3nc-2c1=O,25.8 µM,,38.7 µM,37.4 µM,> 100 µM,> 100 µM,23 µM,71.4 µM,46.5 µM,,,,,,,,,,,
O=S(=O)(O)c1ccc(Cl)cc1.[Cd],16.9 µM,> 100 µM,> 100 µM,> 100 µM,> 100 µM,> 100 µM,,> 100 µM,32.4 µM,4.58 µM,13.7 µM,> 100 µM,34.6 µM,> 100 µM,> 100 µM,> 100 µM,> 100 µM,34 µM,,51.7 µM

# — PubChem BioAssay (NCI)
